# Measured values as given in patent US7737143B2, “Substituted pyrazines as kinase inhibitors” (YM Biosciences Australia Pty Ltd, priority 2003, dated 2010).
# Key:
# Assay type in all cases: biochemical
# human JAK2 = target: T1, human JAK2 (Homo sapiens, UniProt O60674); assay: JAK kinase assay (ELISA or Alphascreen), Jak2; details: standard conditions, read-out: Jak2 inhibition of enzyme activity
# T1 construct: The kinase domain of human JAK2 was amplified from U937mRNA; His tag (pFastBac HTc vector; nickel chelate purification) (N); made in house; host or cells: baculovirus; Sf9 for virus, High Five insect cells for production
# T1 sequence (O60674 849-1124 limits assumed): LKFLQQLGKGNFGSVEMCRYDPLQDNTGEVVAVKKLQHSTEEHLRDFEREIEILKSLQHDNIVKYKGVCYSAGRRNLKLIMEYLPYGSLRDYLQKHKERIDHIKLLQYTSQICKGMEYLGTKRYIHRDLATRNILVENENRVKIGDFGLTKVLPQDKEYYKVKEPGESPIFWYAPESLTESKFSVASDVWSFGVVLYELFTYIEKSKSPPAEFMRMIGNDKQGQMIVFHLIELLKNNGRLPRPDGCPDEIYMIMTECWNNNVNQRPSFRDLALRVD
# Excerpt: The kinase domain of human JAK2 was amplified from U937mRNA using the polymerase chain reaction with the following primers: […]
# JAK2 PCR products were cloned into the pFastBac HTc expression vector (Gibco) via the Sal I and Not I sites. The JAK2 plasmid was then transformed into competent DHL10Bac cells (Gibco), and the recombinant baculovirus produced prepared for transfection into Sf9 insect cells.
# (§1) Baculovirus preparations from each of the JAK family members were infected into five litres of High Five cells (Invitrogen) grown in High Five serum free medium (Invitrogen) to a cell density of approximately 1-2×10^6 cells/ml. Cells are infected with virus at a MOI of 0.8-3.0. Cells were harvested and lysed. JAK kinase domains were purified by affinity chromatography on a Probond (Invitrogen) nickel chelate affinity column.
# (§2) Kinase assays were performed either in a 96 well capture-based ELISA assay or in 384 well Optiplates (Packard) using an Alphascreen Protein Tyrosine Kinase kit. In either case using approximately 15 μg of affinity purified PTK domain in the presence of 50 mM HEPES, pH 7.5, 10 mM MgCl2 150 mM NaCl and 10 μM-1 mM ATP. The biotinylated substrate biotin-EGPWLEEEEEAYGWMDF-NH2 (final concentration 5 μM) was used as substrate. In the ELISA assay tyrosine phosphorylation was quantitated following transfer to an avidin coated ELISA plate using peroxidase-linked anti-phospho-tyrosine antibody PY20. In the Alphascreen assay, Alphascreen phosphotyrosine acceptor beads followed by streptavidin donor beads were added under subdued light. The ELISA plates were read on a BMG Fluorostar, the Alphascreen plates were read on a Packard Fusion Alpha. Inhibitors were added to the assays fifteen minutes prior to the addition of ATP. Inhibitors were added in aqueous DMSO, with DMSO concentrations never exceeding 1%.
# human JAK3 = target: T2, human JAK3 (Homo sapiens, UniProt P52333); assay: JAK kinase assay (ELISA or Alphascreen), Jak3; details: standard conditions, read-out: Jak3 inhibition of enzyme activity
# T2 construct: The kinase domain of human JAK3 was amplified from U937mRNA; His tag (pFastBac HTb vector; nickel chelate purification) (N); made in house; host or cells: baculovirus; Sf9 for virus, High Five insect cells for production
# T2 sequence (P52333 822-1111 limits assumed): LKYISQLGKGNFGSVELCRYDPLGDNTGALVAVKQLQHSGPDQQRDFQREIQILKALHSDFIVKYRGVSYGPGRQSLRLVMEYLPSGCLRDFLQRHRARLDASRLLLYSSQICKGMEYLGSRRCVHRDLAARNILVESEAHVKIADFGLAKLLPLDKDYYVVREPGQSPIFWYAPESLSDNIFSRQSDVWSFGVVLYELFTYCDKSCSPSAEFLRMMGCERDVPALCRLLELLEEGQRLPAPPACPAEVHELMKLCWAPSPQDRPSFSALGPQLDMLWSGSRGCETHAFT
# Excerpt: The kinase domain of human JAK3 was amplified from U937mRNA using the polymerase chain reaction with the following primers: […]
# JAK3 PCR products were cloned into the pFastBac HTb expression vector (Gibco) via the Xho I and Kpn I sites. The JAK3 plasmid was then transformed into competent DH10Bac cells (Gibco), and the recombinant baculovirus produced prepared for transfection into Sf9 insect cells.
# as §1, §2
# abl = target: T3, abl (Homo sapiens, UniProt P00519); assay: Kinase assay (ELISA or Alphascreen), abl; details: standard conditions, read-out: abl inhibition of enzyme activity
# T3 sequence (P00519 242-493 limits assumed): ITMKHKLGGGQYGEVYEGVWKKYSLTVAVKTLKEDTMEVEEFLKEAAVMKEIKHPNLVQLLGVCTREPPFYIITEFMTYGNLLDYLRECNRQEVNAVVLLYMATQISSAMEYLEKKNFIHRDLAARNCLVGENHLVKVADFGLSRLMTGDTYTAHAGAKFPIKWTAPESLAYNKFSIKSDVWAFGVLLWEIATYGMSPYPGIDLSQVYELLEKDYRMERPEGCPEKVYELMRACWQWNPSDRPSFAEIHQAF
# Description: as §2
# tie2 = tie2 (Homo sapiens, UniProt Q02763); assay: Kinase assay (ELISA or Alphascreen), tie2; details: standard conditions, read-out: tie2 inhibition of enzyme activity
# Chain of tie2 (Q02763 824-1096 limits assumed, species assumed): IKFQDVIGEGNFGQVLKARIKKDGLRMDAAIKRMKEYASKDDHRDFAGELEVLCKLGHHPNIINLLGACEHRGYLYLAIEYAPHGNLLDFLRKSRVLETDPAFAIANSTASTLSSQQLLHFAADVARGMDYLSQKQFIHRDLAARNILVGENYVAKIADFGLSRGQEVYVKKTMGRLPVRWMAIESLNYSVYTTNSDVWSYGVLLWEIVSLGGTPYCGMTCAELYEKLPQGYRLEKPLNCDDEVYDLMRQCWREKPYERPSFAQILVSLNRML
# Description: as §2
# kdr = kdr (Homo sapiens, UniProt P35968); assay: Kinase assay (ELISA or Alphascreen), kdr; details: standard conditions, read-out: kdr inhibition of enzyme activity
# Chain of kdr (P35968 834-1162 limits assumed, species assumed): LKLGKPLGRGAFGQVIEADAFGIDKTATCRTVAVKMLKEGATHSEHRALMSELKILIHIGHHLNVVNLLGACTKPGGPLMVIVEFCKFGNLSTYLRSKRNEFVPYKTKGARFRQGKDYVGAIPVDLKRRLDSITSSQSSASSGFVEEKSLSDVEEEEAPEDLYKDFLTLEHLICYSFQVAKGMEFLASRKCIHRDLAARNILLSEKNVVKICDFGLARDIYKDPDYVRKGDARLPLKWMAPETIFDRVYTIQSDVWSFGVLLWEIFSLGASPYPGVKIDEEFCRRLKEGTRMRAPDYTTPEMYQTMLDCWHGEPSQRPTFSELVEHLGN
# Description: as §2
# zap70 = target: T4, zap70 (Homo sapiens, UniProt P43403); assay: Kinase assay (ELISA or Alphascreen), zap70; details: standard conditions, read-out: zap70 inhibition of enzyme activity
# T4 sequence (P43403 338-600 limits assumed): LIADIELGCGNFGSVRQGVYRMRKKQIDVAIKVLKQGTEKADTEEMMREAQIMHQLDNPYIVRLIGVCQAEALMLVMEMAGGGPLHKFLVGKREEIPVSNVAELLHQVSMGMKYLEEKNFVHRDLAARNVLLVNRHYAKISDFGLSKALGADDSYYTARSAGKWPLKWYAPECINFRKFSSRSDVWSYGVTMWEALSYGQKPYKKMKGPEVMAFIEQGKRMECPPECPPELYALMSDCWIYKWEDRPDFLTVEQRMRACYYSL
# Description: as §2
# hck = hck (Homo sapiens, UniProt P08631); assay: Kinase assay (ELISA or Alphascreen), hck; details: standard conditions, read-out: hck inhibition of enzyme activity
# Chain of hck (P08631 262-515 limits assumed, species assumed): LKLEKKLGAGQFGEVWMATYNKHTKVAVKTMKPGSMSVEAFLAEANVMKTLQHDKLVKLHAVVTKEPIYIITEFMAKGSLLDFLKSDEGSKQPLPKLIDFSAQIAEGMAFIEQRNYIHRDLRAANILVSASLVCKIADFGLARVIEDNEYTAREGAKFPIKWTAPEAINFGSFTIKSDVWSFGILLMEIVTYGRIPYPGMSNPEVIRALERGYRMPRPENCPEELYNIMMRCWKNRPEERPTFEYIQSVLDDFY
# Description: as §2
# fms = target: T5, fms (Homo sapiens, UniProt P07333); assay: Kinase assay (ELISA or Alphascreen), fms; details: standard conditions, read-out: fms inhibition of enzyme activity
# T5 sequence (P07333 582-910 limits assumed): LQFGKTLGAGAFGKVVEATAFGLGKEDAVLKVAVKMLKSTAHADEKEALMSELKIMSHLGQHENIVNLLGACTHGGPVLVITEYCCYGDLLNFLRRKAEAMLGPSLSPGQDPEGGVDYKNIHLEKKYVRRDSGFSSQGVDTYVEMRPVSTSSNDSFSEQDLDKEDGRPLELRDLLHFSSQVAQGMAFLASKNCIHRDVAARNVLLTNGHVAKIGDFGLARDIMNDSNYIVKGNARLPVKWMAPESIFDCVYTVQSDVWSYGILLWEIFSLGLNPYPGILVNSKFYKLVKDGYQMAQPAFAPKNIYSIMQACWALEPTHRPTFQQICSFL
# Description: as §2
# btk = btk (Homo sapiens, UniProt Q06187); assay: Kinase assay (ELISA or Alphascreen), btk; details: standard conditions, read-out: btk inhibition of enzyme activity
# Chain of btk (Q06187 402-655 limits assumed, species assumed): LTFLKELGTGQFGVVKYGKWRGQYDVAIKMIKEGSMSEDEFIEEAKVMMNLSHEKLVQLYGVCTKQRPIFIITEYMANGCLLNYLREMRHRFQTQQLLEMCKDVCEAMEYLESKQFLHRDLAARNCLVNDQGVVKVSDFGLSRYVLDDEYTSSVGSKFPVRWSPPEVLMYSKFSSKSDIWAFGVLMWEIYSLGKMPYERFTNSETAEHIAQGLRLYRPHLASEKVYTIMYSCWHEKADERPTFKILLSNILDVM
# Description: as §2
inhibition at 20 µM (human JAK2) [%],inhibition at 20 µM (human JAK3) [%],inhibition at 20 µM (abl) [%],inhibition at 20 µM (tie2) [%],inhibition at 20 µM (kdr) [%],inhibition at 20 µM (zap70) [%],inhibition at 20 µM (hck) [%],inhibition at 20 µM (fms) [%],inhibition at 20 µM (btk) [%],Structure (SMILES)
≥ 50,≥ 50,,≥ 50,≥ 50,,,,,CC[C@H](Nc1cncc(-n2cnc3cc(C#N)ccc32)n1)c1ccccc1
≥ 50,≥ 50,,,,≥ 50,,,,C[C@H](Nc1cncc(-n2cnc3ccccc32)n1)c1ccc(F)cc1
≥ 50,≥ 50,,,,,,≥ 50,,N#Cc1ccc2c(c1)ncn2-c1cncc(N[C@H]2CCCc3ccccc32)n1
≥ 50,≥ 50,,,,,,≥ 50,,CC1CC(Nc2cncc(-n3cnc4cc(C#N)ccc43)n2)c2ccccc21 (stereo not shown)
≥ 50,< 50,,,≥ 50,,,,,CC(Nc1cncc(-n2cnc3ccc(CO)cc32)n1)c1ccc(F)cc1 (stereo not shown)
≥ 50,≥ 50,,≥ 50,,,,,,N#Cc1ccc2ncn(-c3cncc(N[C@H]4CCc5ccccc54)n3)c2c1
< 50,< 50,,,≥ 50,,,,,COc1cccc([C@H](C)Nc2cncc(-n3cnc4ccccc43)n2)c1
≥ 50,< 50,,,,,≥ 50,,≥ 50,C[C@H](Nc1cncc(-n2cnc3ccc(CO)cc32)n1)c1ccc(F)cc1
≥ 50,< 50,,,,,,≥ 50,,CCNC(=O)Nc1ccc2c(c1)ncn2-c1cncc(N[C@@H](C)c2ccccc2)n1
≥ 50,≥ 50,,,,≥ 50,,,,Cc1ccc([C@H](C)Nc2cncc(-n3cnc4ccc(C#N)cc43)n2)cc1
≥ 50,≥ 50,,,≥ 50,,,,,C[C@@H](c1ccccc1)N(C)c1cncc(-n2cnc3ccc(C#N)cc32)n1
< 50,< 50,≥ 50,,,,,,,COc1cc(-c2cncc(-n3cnc4ccccc43)n2)ccc1O
≥ 50,≥ 50,,,,,,≥ 50,,CC(Nc1cncc(-n2cnc3cc(C#N)ccc32)n1)c1ccccc1F (stereo not shown)
≥ 50,< 50,≥ 50,,,≥ 50,,,,CC[C@H](Nc1cncc(-n2cnc3ccccc32)n1)c1ccccc1
≥ 50,≥ 50,,≥ 50,≥ 50,,,,,N#Cc1ccc2c(c1)ncn2-c1cncc(N[C@H]2CCc3ccccc32)n1
≥ 50,< 50,,,,≥ 50,,,,Nc1ccc(-c2cncc(-n3cnc4ccccc43)n2)cc1
≥ 50,≥ 50,,,,,≥ 50,,,CC(Nc1cncc(-n2cnc3ccc(C#N)cc32)n1)c1cccc(F)c1 (stereo not shown)

# Continued, compound first:
Structure (SMILES),inhibition at 20 µM (human JAK2) [%],inhibition at 20 µM (human JAK3) [%],inhibition at 20 µM (abl) [%],inhibition at 20 µM (tie2) [%],inhibition at 20 µM (kdr) [%],inhibition at 20 µM (zap70) [%],inhibition at 20 µM (hck) [%],inhibition at 20 µM (fms) [%],inhibition at 20 µM (btk) [%]
CC(Nc1cncc(-n2cnc3ccc(C#N)cc32)n1)c1cccnc1 (stereo not shown),< 50,< 50,≥ 50,,,,,,
C[C@H](Nc1cncc(-n2cnc3cc(NC(=O)c4ccc(CN5CCN(C)CC5)cc4)ccc32)n1)c1ccccc1,< 50,< 50,,,,≥ 50,≥ 50,,
CC(Nc1cncc(-n2cnc3ccc(C#N)cc32)n1)c1cc(F)cc(F)c1 (stereo not shown),≥ 50,≥ 50,,,,,≥ 50,,
CC(Nc1cncc(-n2cnc3cc(C#N)ccc32)n1)c1ccc(F)c(Cl)c1 (stereo not shown),≥ 50,< 50,,,,,≥ 50,,
Cc1ncc(-n2cnc3ccc(C#N)cc32)nc1N[C@@H](C)c1cccc(F)c1,≥ 50,≥ 50,,≥ 50,,,,,
CC(Nc1cncc(-n2cnc3cnccc32)n1)c1ccc(F)cc1 (stereo not shown),≥ 50,< 50,,,≥ 50,,,,
C[C@H](Nc1cncc(-n2cnc3cc(-c4nn[nH]n4)ccc32)n1)c1ccc(F)cc1,< 50,< 50,,,,≥ 50,,,
N#Cc1ccc2c(c1)ncn2-c1cncc(NC2CCc3cc(F)ccc32)n1 (stereo not shown),≥ 50,≥ 50,,≥ 50,,,,,
C[C@H](Nc1cncc(-n2cnc3ccc(CN(CCO)CCO)cc32)n1)c1ccc(F)cc1,≥ 50,< 50,,,,,≥ 50,,
CC(Nc1cncc(-n2cnc3cc(C#N)ccc32)n1)c1cccnc1 (stereo not shown),≥ 50,≥ 50,,,,,≥ 50,,
CO/C=C\N(C)CCCCNC(=O)c1ccc2ncn(-c3cncc(N[C@@H](C)c4ccccc4)n3)c2c1,≥ 50,≥ 50,,,≥ 50,≥ 50,,,
CC(Nc1cncc(-n2cnc3cc(C#N)ccc32)n1)c1cccc2ccccc12 (stereo not shown),< 50,< 50,,,,,,≥ 50,
C[C@H](Nc1cncc(-n2cnc3ccc(CN4CCCC4)cc32)n1)c1ccc(F)cc1,≥ 50,< 50,,≥ 50,,,,,
C[C@H](Nc1cncc(-n2cnc3cc(NC(=O)N4CCN(C)CC4)ccc32)n1)c1ccccc1,≥ 50,< 50,≥ 50,,≥ 50,≥ 50,≥ 50,,
C[C@H](Nc1cncc(-n2cnc3cc(C(=O)NCCCCN4CCOCC4)ccc32)n1)c1ccccc1,≥ 50,< 50,≥ 50,,,≥ 50,,,
COc1ccc2c(c1)CCC2Nc1cncc(-n2cnc3ccc(C#N)cc32)n1 (stereo not shown),< 50,< 50,,,,,≥ 50,,
C[C@H](Nc1cncc(-n2cnc3ccc(CN4CCNCC4)cc32)n1)c1ccc(F)cc1,< 50,≥ 50,,≥ 50,,,,,
C[C@H](Nc1cncc(-n2cnc3ccc(CN4CCOCC4)cc32)n1)c1ccc(F)cc1,≥ 50,< 50,,,,,≥ 50,,
